Counter-ions that a name gives are not always drawn.
These molecules were tested on Acinetobacter baumannii ATCC17961 (assay: Antimicrobial susceptibility testing: 90% growth inhibitory concentration (IC90) determination in Iso-Sensitest broth, OD600 growth). Conditions: Acinetobacter baumannii, ATCC17961, 16 h, read-out: A. baumannii ATCC 17961 IC90 (uM), strain ATCC 17961, OD600 growth over 16 h.
Type: cell-based
In short: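 Growth inhibition is calculated during the logarithmic phase from OD600 readings taken every 20 minutes across 16 h at 35±2° C. Bacteria at ~5×10^(5) CFU/ml face twofold dilution series (e.g. 50 to 0.097 μM final).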

Row | SMILES | IC90
1 | NCCOCCNC(=O)c1ccc(Nc2nccn3c(-c4cn(CC(F)F)nc4C(F)(F)F)cnc23)cc1F [Example 809, N-(2-(2-aminoethoxy)ethyl)-4-((3-(1-(2,2-difluoroethyl)-3-(trifluoromethyl)-1H-pyrazol-4-yl)imidazo[1,2-a]pyrazin-8-yl)amino)-2-fluorobenzamidei hydrochloride] | 0.17 µM

Same assay, conditions: Acinetobacter baumannii, ATCC17961, 16 h, strain ATCC 17961, OD600 growth over 16 h, read-out: A. baumannii ATCC 17961 IC90

Row | IC90 | SMILES
2 | 0.88 µM | O=C(c1ccc(Nc2nccn3c(-c4c[nH]nc4C(F)(F)F)cnc23)cc1F)N1CCNCC1 [Example 805, (2-fluoro-4-((3-(3-(trifluoromethyl)-1H-pyrazol-4-yl)imidazo[1,2-α]pyrazin-8-yl)amino)phenyl)(piperazin-1-yl)methanone hydrochloride]
3 | 0.25 µM | N[C@@H]1CC[C@H](C(=O)N2CCN(C(=O)c3ccc(Nc4nccn5c(-c6cn(CC(F)F)nc6C(F)(F)F)cnc45)cc3F)CC2)C1 [Example 806, (4-((1S,3R)-3-aminocyclopentane-1-carbonyl)piperazin-1-yl)(4-((3-(1-(2,2-difluoroethyl)-3-(trifluoromethyl)-1H-pyrazol-4-yl)imidazo[1,2-α]pyrazin-8-yl)amino)-2-fluorophenyl)methanone hydrochloride]
4 | 0.31 µM | N#CCn1cc(-c2cnc3c(Nc4ccc(C(=O)N5CCN(C(=O)[C@H]6CC[C@@H](N)C6)CC5)c(F)c4)nccn23)c(C(F)(F)F)n1 [Example 807, 2-(4-(8-((4-(4-((1S,3R)-3-aminocyclo-pentane-1-carbonyl)piperazin-1-carbonyl)-3-fluorophenyl)amino)imidazo [1,2-a]pyrazin-3-yl)-3-(trifluoromethyl)-1H-pyrazol-1-yl)acetonitrile hydrochloride]
5 | 0.26 µM | N[C@@H]1CC[C@H](C(=O)N2CCN(C(=O)c3ccc(Nc4nccn5c(-c6cn(CC7CC7)nc6C(F)(F)F)cnc45)cc3F)CC2)C1 [Example 808, (4-((1S,3R)-3-aminocyclo-pentane-1-carbonyl)piperazin-1-yl)(4-((3-(1-(cyclopropyl-methyl)-3-(trifluoromethyl)-1H-pyrazol-4-yl)imidazo[1,2-a]pyrazin-8-yl)amino)-2-fluorophenyl) methanone hydrochloride]
6 | 0.25 µM | N#CCn1cc(-c2cnc3c(Nc4ccc(C(=O)NCCOCCN)c(F)c4)nccn23)c(C(F)(F)F)n1 [Example 810, N-(2-(2-aminoethoxy)ethyl)-4-((3-(1-(cyanomethyl)-3-(trifluoromethyl)-1H-pyrazol-4-yl)imrdazo[1,2-a]pyrazin-8-yl)amino)-2-fluorobenzamide hydrochloride]
7 | 0.23 µM | NCCOCCNC(=O)c1ccc(Nc2nccn3c(-c4cn(CC5CC5)nc4C(F)(F)F)cnc23)cc1F [Example 811, N-(2-(2-aminoethoxy)ethyl)-4-((3-(1-(cyclopropyl-methyl)-3-(trifluoromethyl)-1H-pyrazol-4-yl)imidazo[1,2-a]pyrazin-8-yl)amino)-2-fluorobenzamide hydrochloride]
8 | 0.2 µM | NCC(=O)N1CCN(C(=O)c2ccc(Nc3nccn4c(-c5cn(CC(F)F)nc5C(F)(F)F)cnc34)cc2F)CC1 [Example 812, 2-amino-1-(4-(4-(3-(1-2,2-difluoroethyl)-3-(trifluoromethyl)-1H-pyrazol-4-yl)imidazo[1,2-a]pyrazin-8-yl)amino)-2-fluorobenzoyl) piperazin-1-yl) ethan-1-one hydrochloride]
9 | 0.21 µM | N#CCn1cc(-c2cnc3c(Nc4ccc(C(=O)N5CCN(C(=O)CN)CC5)c(F)c4)nccn23)c(C(F)(F)F)n1 [Example 813, 2-(4-(8-((3-fluoro-4-(4-glycylpiperazine-1-carbonyl)phenyl)amino)imidazo [1,2-a]pyrazin-3-yl)-3-(trifluoromethyl)-1H-pyrazol-1-yl)acetonitrile hydrochloride]
10 | 0.14 µM | NCC(=O)N1CCN(C(=O)c2ccc(Nc3nccn4c(-c5cn(CC6CC6)nc5C(F)(F)F)cnc34)cc2F)CC1 [Example 814, 2-amino-1-(4-(4-((3-(1-(cyclopropyl-methyl)-3-(trifluoromethyl)-1H-pyrazol-4-yl)imidazo[1,2-a]pyrazin-8-yl)amino)-2-fluorobenzoyl)piperazin-1-yl)ethan-1-one hydrochloride]
11 | 0.18 µM | N#CCn1cc(-c2cnc3c(Nc4ccc(C(=O)NCCNCC(=O)NCCN)c(Cl)c4)nccn23)c(C(F)(F)F)n1 [Example 815, N-(2-((2-((2-aminoethyl)amino)-2-oxoethyl)amino)ethyl)-2-chloro-4-((3-(1-(cyanomethyl)-3-(trifluoromethyl)-1H-pyrazol-4-yl)imidazo[1,2-α]pyrazin-8-yl)amino)benzamide formate]
12 | 0.29 µM | N#CCn1cc(-c2cnc3c(Nc4ccc(C(=O)NCCNCC(=O)NC5CNC5)c(Cl)c4)nccn23)c(C(F)(F)F)n1 [Example 816, N-(2-(2-(azetidin-3-ylamino)-2-oxoethyl)amino) ethyl)-2-chloro-4-((3-(1-(cyanomethyl)-3-(trifluoromethyl)-1H-pyrazol-4-yl)imidazo[1,2-a]pyrazin-8-yl)amino) benzamide formate]
13 | 0.18 µM | N#CCn1cc(-c2cnc3c(Nc4ccc(C(=O)NCCNCC(=O)N[C@H]5CCNC5)c(Cl)c4)nccn23)c(C(F)(F)F)n1 [Example 817, (S)-2-chloro-4-((3-(1-(cyanomethyl)-3-(trifluoromethyl)-1H-pyrazol-4-yl)imidazo[1,2-a]pyrazin-8-yl)amino)-N-(2-((2-oxo-2-(pyrrolidin-3-ylamino)ethyl)amino)ethyl) benzamide formate]
14 | 0.15 µM | N#CCn1cc(-c2cnc3c(Nc4ccc(C(=O)NCCNCC(=O)N[C@@H]5CCNC5)c(Cl)c4)nccn23)c(C(F)(F)F)n1 [Example 818, (R)-2-chloro-4-((3-(1-(cyanomethyl)-3-(trifluoromethyl)-1H-pyrazol-4-yl)imidazo[1,2-a]pyrazin-8-yl)amino)-N-(2-((2-oxo-2-(pyrrolidin-3-ylamino)ethyl)amino)ethyl) benzamide formate]
15 | 0.18 µM | N#CCn1cc(-c2cnc3c(Nc4ccc(C(=O)NCCNCC(=O)NCCCN)c(Cl)c4)nccn23)c(C(F)(F)F)n1 [Example 819, N-(2-((2-((3-aminopropyl)amino)-2-oxoethyl)amino)ethyl)-2-chloro-4-((3-(1-(cyanomethyl)-3-(trifluoromethyl)-1H-pyrazol-4-yl)imidazo[1,2-a]pyrazin-8-yl)amino) benzamide formate]
16 | 0.15 µM | NCCNC(=O)CNCCNC(=O)c1ccc(Nc2nccn3c(-c4cn(CC(F)F)nc4C(F)(F)F)cnc23)cc1Cl [Example 820, N-(2-((2-((2-aminoethyl)amino)-2-oxoethyl)amino)ethyl)-2-chloro-4-(3-(1-(2,2-difluoroethyl)-3-(trifluoromethyl)-1H-pyrazol-4-yl)imidazo[1,2-a]pyrazin-8-yl)amino) benzamide formate]
17 | 0.16 µM | O=C(CNCCNC(=O)c1ccc(Nc2nccn3c(-c4cn(CC(F)F)nc4C(F)(F)F)cnc23)cc1Cl)NC1CNC1 [Example 821, N-(2-((2-(azetidin-3-ylamino)-2-oxoethyl)amino)ethyl)-2-chloro-4-(3-(1-(2,2-difluoroethyl)-3-(trifluoromethyl)-1H-pyrazol-4-yl)imidazo[1,2-a]pyrazin-8-yl)amino) benzamide formate]
18 | 0.15 µM | O=C(CNCCNC(=O)c1ccc(Nc2nccn3c(-c4cn(CC(F)F)nc4C(F)(F)F)cnc23)cc1Cl)N[C@H]1CCNC1 [Example 822, (S)-2-chloro-4-(3-(1-2,2-difluoroethyl)-3-(trifluoromethyl)-1H-pyrazol-4-yl)imidazo[1,2-a]pyrazin-8-yl)amino)-N-(2-((2-oxo-2-(pyrrolidin-3-ylamino)ethyl) amino)ethyl) benzamide formate]
19 | 0.18 µM | O=C(CNCCNC(=O)c1ccc(Nc2nccn3c(-c4cn(CC(F)F)nc4C(F)(F)F)cnc23)cc1Cl)N[C@@H]1CCNC1 [Example 823, (R)-2-chloro-4-(3-(1-(2,2-difluoroethyl)-3-(trifluoromethyl)-1H-pyrazol-4-yl)imidazo[1,2-a]pyrazin-8-yl)amino)-N-(2-((2-oxo-2-(pyrrolidin-3-ylamino)ethyl)amino)ethyl) benzamide formate]
20 | 0.12 µM | NCCCNC(=O)CNCCNC(=O)c1ccc(Nc2nccn3c(-c4cn(CC(F)F)nc4C(F)(F)F)cnc23)cc1Cl [Example 824, N-(2-((2-((3-aminopropyl)amino)-2-oxoethyl)amino)ethyl)-2-chloro-4-(3-(1-2,2-difluoroethyl)-3-(trifluoromethyl)-1H-pyrazol-4-yl)imidazo[1,2-a]pyrazin-8-yl)amino) benzamide formate]
21 | 0.11 µM | N#CCn1cc(-c2cnc3c(Nc4ccc(C(=O)N[C@H]5[C@@H]6CN(C(=O)N[C@@H]7CNC[C@H]7O)C[C@@H]65)c(Cl)c4)nccn23)c(C(F)(F)F)n1 [Example 825, (1s,5r)-6-[[2-chloro-4-[[3-[1-(cyanomethyl)-3-(trifluoromethyl)pyrazol-4-yl]imidazo[1,2-α]pyrazin-8-yl]amino]benzoyl]amino]-N-[(3R,4R)-4 hydroxypyrrolidin-3-yl]-3-azabicyclo[3.1.0]hexane-3-carboxamide formic acid salt]
22 | 0.11 µM | NCCCCCCNC(=O)c1ccc(Nc2nccn3c(-c4cn(CC(F)F)nc4C(F)(F)F)cnc23)cc1Cl [Example 826, N-(6-aminohexyl)-2-chloro-4-((3-(1-(2,2-difluoroethyl)-3-(trifluoromethyl)-1H-pyrazol-4-yl)imidazo[1,2-α]pyrazin-8-yl)amino)benzamide hydrochloride]

Same assay, conditions: strain ATCC 17961, OD600 growth over 16 h, read-out: A. baumannii ATCC 17961 IC90

Row | IC90 | SMILES
23 | 0.511 µM | CCc1cc(Nc2nccn3c(-c4c[nH]nc4C(F)(F)F)cnc23)ccc1C(=O)NCCNC(=O)[C@H]1C[C@@H](N)C1 [Example 804, N-(2-((1s,3s)-3-aminocyclobutane-1-carboxamido)ethyl)-2-ethyl-4-((3-(3-(trifluoromethyl)-1H-pyrazol-4-yl)imidazo[1,2-a]pyrazin-8-yl)amino)benzamide formate]
